Common to all, as to assay type: functional, organism-based
For experiment [1], the system named is Mus musculus. In words: Antidepressant activity against dark-induced depression in Albino Swiss mouse assessed as decrease in immobility period at 15 mg/kg, ip once daily for 4 days and 30 mins before test on day 5 by forced swimming test. Also on record: dose 15 mg/kg.
Experiment [2] deals with Mus musculus. In words: Antidepressant activity against dark-induced depression in Albino Swiss mouse assessed as decrease in immobility period at 30 mg/kg, ip once daily for 4 days and 30 mins before test on day 5 by forced swimming test. Further details: dose 30 mg/kg.
Experiment [3] concerns Mus musculus. In words: Antidepressant activity against dark-induced depression in Albino Swiss mouse assessed as increase in brain serotonin level at 15 mg/kg, ip once daily for 4 days and 30 mins before test on day 5. Also on record: dose 15 mg/kg.
The test system of experiment [4] is Mus musculus. In words: Antidepressant activity against dark-induced depression in Albino Swiss mouse assessed as increase in brain serotonin level at 20 mg/kg, ip once daily for 4 days and 30 mins before test on day 5. Also on record: dose 20 mg/kg.
Experiment [5] concerns Mus musculus. In words: Antidepressant activity against dark-induced depression in Albino Swiss mouse assessed as decrease in immobility period at 20 mg/kg, ip once daily for 4 days and 30 mins before test on day 5 by forced swimming test. Also on record: dose 20 mg/kg.

Active and inactive are the calls of the source. No cut-off for these calls is given here.

Turning to `COc1ccc([C@@H]2[C@@H]([C@@H]3C=CC[C@@H]4C(=O)N(c5ccccc5)C(=O)[C@H]34)C(=O)N2c2ccccc2)cc1`, the outcome in the experiment on Mus musculus [1], in the experiment on Mus musculus [2], with Mus musculus [3] and in the experiment with Mus musculus [4] was Active.

For `O=C1OC(=O)[C@H]2CC=C[C@@H]([C@H]3C(=O)N(c4ccccc4)[C@@H]3c3ccccc3)[C@@H]12`, the result in the experiment with Mus musculus [1], in the experiment on Mus musculus [2] and with Mus musculus [3] was Active.

As for `O=C1C=CC(=O)[C@H]2CC=C[C@@H]([C@H]3C(=O)N(C4CCCCC4)[C@H]3c3ccccc3)[C@@H]12`, the outcome in the experiment on Mus musculus [1], with Mus musculus [2] and in the experiment on Mus musculus [3] was Active.

With `Cc1ccc(N2C(=O)[C@@H]3[C@H]([C@H]4C(=O)N(C5CCCCC5)[C@H]4c4ccc(Cl)cc4)C=CC[C@@H]3C2=O)cc1`, the result in the experiment on Mus musculus [1], in the experiment on Mus musculus [2] and in the experiment on Mus musculus [3] was inactive.

For the molecule `CNCCC(Oc1ccc(C(F)(F)F)cc1)c1ccccc1` (stereo not given), the result with Mus musculus [4] and with Mus musculus [5] was Active.

Source of the values: ChEMBL document CHEMBL1142501, “PASS-assisted exploration of antidepressant activity of 1,3,4-trisubstituted-beta-lactam derivatives” (Bioorg Med Chem Lett, 2008).
